Measurements from the supplement of paper PMC11451515.

Tested on: P12-Ichikawa
Assay: cell viability relative to DMSO control; higher = less cytotoxic
Settings: 48 h
In short: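 NOMO1, SEM and P12-Ichikawa leukemia cells spent at least four passages adapting to each medium before use. They were seeded at 500 cells/well (NOMO1, SEM) or 1000 cells/well (P12-Ichikawa) in 5 μl in 1536-well plates and pin-dosed with library compounds in DMSO at 11 threefold steps from 47 μM down to 0.79 nM. After 48 h at 37°C, CellTiter-Glo One luminescence was read. Viability is reported as a percentage of the DMSO wells on each plate, with cell-free wells as background.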

[1] = HPLM + 10% dialyzed FBS, 0.000781 µM
[2] = HPLM + 10% dialyzed FBS, 0.00234 µM
[3] = HPLM + 10% dialyzed FBS, 0.00702 µM
[4] = HPLM + 10% dialyzed FBS, 0.0211 µM
[5] = HPLM + 10% dialyzed FBS, 0.0632 µM
[6] = HPLM + 10% dialyzed FBS, 0.19 µM
[7] = HPLM + 10% dialyzed FBS, 0.569 µM
[8] = HPLM + 10% dialyzed FBS, 1.71 µM
[9] = HPLM + 10% dialyzed FBS, 5.12 µM
[10] = HPLM + 10% dialyzed FBS, 15.4 µM
[11] = HPLM + 10% dialyzed FBS, 46.1 µM
[12] = RPMI 5 mM glucose + 10% FBS, 0.000781 µM
[13] = RPMI 5 mM glucose + 10% FBS, 0.00234 µM
[14] = RPMI 5 mM glucose + 10% FBS, 0.00702 µM
[15] = RPMI 5 mM glucose + 10% FBS, 0.0211 µM
[16] = RPMI 5 mM glucose + 10% FBS, 0.0632 µM
[17] = RPMI 5 mM glucose + 10% FBS, 0.19 µM
[18] = RPMI 5 mM glucose + 10% FBS, 0.569 µM
[19] = RPMI 5 mM glucose + 10% FBS, 1.71 µM
[20] = RPMI 5 mM glucose + 10% FBS, 5.12 µM
[21] = RPMI 5 mM glucose + 10% FBS, 15.4 µM
[22] = RPMI 5 mM glucose + 10% FBS, 46.1 µM
[23] = RPMI 5 mM glucose + 10% dialyzed FBS, 0.000781 µM
[24] = RPMI 5 mM glucose + 10% dialyzed FBS, 0.00234 µM
[25] = RPMI 5 mM glucose + 10% dialyzed FBS, 0.00702 µM
[26] = RPMI 5 mM glucose + 10% dialyzed FBS, 0.0211 µM
[27] = RPMI 5 mM glucose + 10% dialyzed FBS, 0.0632 µM
[28] = RPMI 5 mM glucose + 10% dialyzed FBS, 0.19 µM
[29] = RPMI 5 mM glucose + 10% dialyzed FBS, 0.569 µM
[30] = RPMI 5 mM glucose + 10% dialyzed FBS, 1.71 µM
[31] = RPMI 5 mM glucose + 10% dialyzed FBS, 5.12 µM
[32] = RPMI 5 mM glucose + 10% dialyzed FBS, 15.4 µM
[33] = RPMI 5 mM glucose + 10% dialyzed FBS, 46.1 µM

SMILES | cell viability [1] [%] | cell viability [2] [%] | cell viability [3] [%] | cell viability [4] [%] | cell viability [5] [%] | cell viability [6] [%] | cell viability [7] [%] | cell viability [8] [%] | cell viability [9] [%] | cell viability [10] [%] | cell viability [11] [%] | cell viability [12] [%] | cell viability [13] [%] | cell viability [14] [%] | cell viability [15] [%] | cell viability [16] [%] | cell viability [17] [%] | cell viability [18] [%] | cell viability [19] [%] | cell viability [20] [%] | cell viability [21] [%] | cell viability [22] [%] | cell viability [23] [%] | cell viability [24] [%] | cell viability [25] [%] | cell viability [26] [%] | cell viability [27] [%] | cell viability [28] [%] | cell viability [29] [%] | cell viability [30] [%] | cell viability [31] [%] | cell viability [32] [%] | cell viability [33] [%]
C1CCC(C(CC2CCCCN2)C2CCCCC2)CC1 (stereo not drawn) | 115 | 117 | 124 | 119 | 128 | 124 | 129 | 127 | 119 | 123 | 88.3 | 118 | 123 | 124 | 115 | 128 | 134 | 126 | 119 | 131 | 106 | 54.2 | 109 | 127 | 107 | 122 | 123 | 124 | 122 | 126 | 117 | 115 | 67.7
CC1(C)OC2CC3C4CC(F)C/5=C/C(=O)/C=C\C5(C)C4C(O)CC3(C)[C@@]2(O1)C(=O)CO (stereo partly drawn) | 110 | 117 | 114 | 115 | 107 | 94.9 | 78 | 73.8 | 71.6 | 72.5 | 70.7 |  |  |  |  |  |  |  |  |  |  |  | 115 | 119 | 117 | 102 | 94.4 | 76.6 | 61.4 | 52.1 | 50.8 | 45.9 | 49
C=CC1=C(C(=O)O)N2C(=O)[C@@H](NC(=O)/C(=N\O)c3csc(N)n3)[C@H]2SC1 | 100 | 115 | 79.3 | 116 | 131 | 122 | 121 | 117 | 125 | 35.2 | 123 | 101 | 112 | 66.1 | 116 | 117 | 123 | 124 | 115 | 119 | 124 | 109 | 99.2 | 118 | 75.5 | 112 | 124 | 117 | 117 | 129 | 115 | 123 | 125
CNC1[C@@H](O)C(O[C@@H]2C(O)C(O[C@H]3O[C@H]([C@@H](C)NC)CC[C@H]3N)[C@@H](N)C[C@H]2N)OC[C@]1(C)O (stereo partly drawn) | 104 | 98.3 | 102 | 99.6 | 96.5 | 102 | 102 | 98.6 | 89.6 | 90.8 | 85.4 | 92.8 | 88.9 | 97.7 | 91.8 | 93 | 102 | 95.2 | 97.1 | 87.9 | 82.4 | 92.2 | 92.7 | 89.9 | 90 | 93 | 97.8 | 92.2 | 94.1 | 92.3 | 89.4 | 82.7 | 88.4
CN(C)CCc1c[nH]c2ccc(C[C@H]3COC(=O)N3)cc12 | 98.4 | 109 | 109 | 115 | 105 | 105 | 116 | 112 | 88.7 | 13.7 | 9.01 | 105 | 101 | 112 | 104 | 111 | 117 | 116 | 102 | 84.1 | 36.2 | 6.37 | 108 | 100 | 105 | 111 | 106 | 111 | 104 | 112 | 80.2 | 38.2 | 7.95
O=C1C[C@@H](c2ccc(O)cc2)Oc2cc(O)cc(O)c21 | 130 | 119 | 120 | 116 | 119 | 120 | 112 | 110 | 102 | 114 | 121 | 125 | 124 | 119 | 124 | 118 | 129 | 114 | 121 | 107 | 110 | 114 | 120 | 120 | 120 | 122 | 115 | 130 | 120 | 104 | 110 | 110 | 103
Cc1c(Cn2c(C)nc3c(C(=O)O)cc(N4CCOCC4)cc32)cccc1C(F)(F)F | 102 | 109 | 107 | 116 | 115 | 108 | 120 | 106 | 104 | 110 | 87.8 | 98.6 | 100 | 108 | 115 | 111 | 102 | 113 | 109 | 99.5 | 89.2 | 94.2 | 92.9 | 112 | 109 | 122 | 115 | 106 | 119 | 111 | 96.9 | 107 | 100
CCOC(=O)[C@H](CCc1ccccc1)N[C@@H](C)C(=O)N1CCC[C@H]1C(=O)O | 120 | 108 | 116 | 111 | 102 | 117 | 112 | 109 | 108 | 97.8 | 106 | 118 | 117 | 107 | 111 | 113 | 113 | 108 | 111 | 108 | 98.1 | 101 | 114 | 111 | 106 | 110 | 113 | 116 | 105 | 121 | 104 | 108 | 102
